As a reminder, the MIC is the lowest concentration that inhibits growth of the organism. Low values mean greater potency, high ones weaker potency.

MIC and No. of strains data for 5 compounds are collected here from ChEMBL document CHEMBL1129577, “Identification of a novel oxazolidinone (U-100480) with potent antimycobacterial activity” (1996).

Each structure is given as a SMILES string. Converted amounts (≈) assume the structure as drawn.

Format in all cases: functional
Assay [1] deals with Mycobacterium tuberculosis. Briefly: Compound was evaluated for in vitro anti-mycobacterial activity against Mycobacterium tuberculosis.
The subject of assay [2] is Mycobacterium tuberculosis. Briefly: In vitro anti-mycobacterial activity against multiple sensitive strains of Mycobacterium tuberculosis at 2 ug/mL.
The subject of assay [3] is Mycobacterium tuberculosis. Nature of the assay: In vitro anti-mycobacterial activity against multiple sensitive strains of Mycobacterium tuberculosis at 0.125 ug/mL.
The test system of assay [4] is Mycobacterium tuberculosis. Nature of the assay: In vitro anti-mycobacterial activity against multiple sensitive strains of Mycobacterium tuberculosis at 0.50 ug/mL.
Assay [5] relates to Mycobacterium xenopi. Nature of the assay: Compound was evaluated for in vitro anti-mycobacterial activity against Mycobacterium xenopi.
The subject of assay [6] is Mycobacterium malmoense. Briefly: Compound was evaluated for in vitro anti-mycobacterial activity against Mycobacterium malmoense.
The subject of assay [7] is Mycobacterium avium. Briefly: Compound was evaluated for in vitro anti-mycobacterial activity against MAC 101.
Assay [8] relates to Mycobacterium avium. Nature of the assay: Compound was evaluated for in vitro anti-mycobacterial activity against Mycobacterium avium complex (MAC) ATCC 49601.
Assay [9] has as its system Mycolicibacterium fortuitum. Briefly: Compound was evaluated for in vitro anti-mycobacterial activity against Mycobacterium fortuitum.
In assay [10] the test system is Mycobacterium simiae. Nature of the assay: Compound was evaluated for in vitro anti-mycobacterial activity against Mycobacterium simiae.
The subject of assay [11] is Mycobacterium tuberculosis. Briefly: In vitro anti-mycobacterial activity against multiple sensitive strains of Mycobacterium tuberculosis at 0.03 ug/mL.
The test system of assay [12] is Mycobacterium avium. Briefly: Compound was evaluated for in vitro anti-mycobacterial activity against Mycobacterium avium complex by 50%.
Assay [13] has as its system Mycobacterium tuberculosis. Briefly: Compound was evaluated for in vitro anti-mycobacterial activity against Mycobacterium tuberculosis H37Rv.
Assay [14] has as its system Mycobacterium avium. Nature of the assay: Compound was evaluated for in vitro anti-mycobacterial activity against Mycobacterium avium complex by 90%.

The compound `CC(=O)NC[C@H]1CN(c2ccc(N3CC[S+]([O-])CC3)c(F)c2)C(=O)O1` displayed an MIC in [1] of less than 0.125 µg/mL.

For `CC(=O)NC[C@H]1CN(c2ccc(N3CCS(=O)(=O)CC3)c(F)c2)C(=O)O1`, the No. of strains in [2] is listed as 1; in [3], 1; in [4] it was 4.

With `CC[C@H]1OC(=O)[C@H](C)[C@@H](O[C@H]2C[C@@](C)(OC)[C@@H](O)[C@H](C)O2)[C@H](C)[C@@H](O[C@@H]2O[C@H](C)C[C@H](N(C)C)[C@H]2O)[C@](C)(O)C[C@@H](C)CN(C)[C@H](C)[C@@H](O)[C@]1(C)O` [AZITHROMYCIN], the minimal inhibitory concentration (MIC) in assay [5] is 1 µg/mL (≈ 1.34 µM); in assay [6] it was 16 µg/mL (≈ 21.4 µM); in [7] it was 4 µg/mL (≈ 5.34 µM); in assay [8], 4 µg/mL (≈ 5.34 µM); in assay [9], greater than 64 µg/mL; in assay [10] it was 4 µg/mL (≈ 5.34 µM).

Consider `NNC(=O)c1ccncc1` [ISONIAZID], for which the MIC in [1] was 0.2 µg/mL (≈ 1.46 µM).

As to `CC(=O)NC[C@H]1CN(c2ccc(N3CCSCC3)c(F)c2)C(=O)O1` [SUTEZOLID], the MIC was 2 µg/mL (≈ 5.66 µM) in assay [5]; 2 µg/mL (≈ 5.66 µM) in [6]; 0.5 µg/mL (≈ 1.41 µM) in assay [7]; 2 µg/mL (≈ 5.66 µM) in [12]; 4 µg/mL (≈ 11.3 µM) in assay [8]; less than 0.125 µg/mL in [13]. Moreover, the values for the MIC in assay [9], in assay [10] and in [14] were 8 µg/mL (≈ 22.6 µM), 2 µg/mL (≈ 5.66 µM) and 4 µg/mL (≈ 11.3 µM), respectively. Besides, the No. of strains in assay [11] was determined as 1; in assay [3], 2; in [4], 2.
